Earlier results on two compounds are cited in patent US20230277473A1 (priority 2023, published 2023).

For data set [1] the following is noted: in vivo.

The half-life is the time in which the quantity being followed falls by half. Consider `Cc1nc2n(c(=O)c1CCN1CCC(c3noc4cc(F)ccc34)CC1)CCCC2O` (centres unmarked) [9-hydroxyrisperidone], for which, in data set [1], the half-life is 21 h. As to `Cc1nc2n(c(=O)c1CCN1CCC(c3noc4cc(F)ccc34)CC1)CCCC2` [RPD, risperidone], the solubility in water entry is given as “almost insoluble in water”.
